Here are results for 2 substances from US12440535B2, “IL-4 derived peptide fragments for use in the treatment of diabetic nephropathy” (SERODUS APS, priority 2022, dated 2025).

“Also recorded” adds a separate entry of the source. Where no end group is shown, it is not given here. [ ]: non-standard residue; d: D form. βAla = NCCC(=O)O

One experiment relates to IL-4 receptors. Particulars: cited from earlier work.
The subject of a further experiment is macrophages. Particulars: cited from earlier work.
The target of another experiment is T1, type II IL-4R (Homo sapiens, UniProt P24394).
T1 sequence (P24394 26-825): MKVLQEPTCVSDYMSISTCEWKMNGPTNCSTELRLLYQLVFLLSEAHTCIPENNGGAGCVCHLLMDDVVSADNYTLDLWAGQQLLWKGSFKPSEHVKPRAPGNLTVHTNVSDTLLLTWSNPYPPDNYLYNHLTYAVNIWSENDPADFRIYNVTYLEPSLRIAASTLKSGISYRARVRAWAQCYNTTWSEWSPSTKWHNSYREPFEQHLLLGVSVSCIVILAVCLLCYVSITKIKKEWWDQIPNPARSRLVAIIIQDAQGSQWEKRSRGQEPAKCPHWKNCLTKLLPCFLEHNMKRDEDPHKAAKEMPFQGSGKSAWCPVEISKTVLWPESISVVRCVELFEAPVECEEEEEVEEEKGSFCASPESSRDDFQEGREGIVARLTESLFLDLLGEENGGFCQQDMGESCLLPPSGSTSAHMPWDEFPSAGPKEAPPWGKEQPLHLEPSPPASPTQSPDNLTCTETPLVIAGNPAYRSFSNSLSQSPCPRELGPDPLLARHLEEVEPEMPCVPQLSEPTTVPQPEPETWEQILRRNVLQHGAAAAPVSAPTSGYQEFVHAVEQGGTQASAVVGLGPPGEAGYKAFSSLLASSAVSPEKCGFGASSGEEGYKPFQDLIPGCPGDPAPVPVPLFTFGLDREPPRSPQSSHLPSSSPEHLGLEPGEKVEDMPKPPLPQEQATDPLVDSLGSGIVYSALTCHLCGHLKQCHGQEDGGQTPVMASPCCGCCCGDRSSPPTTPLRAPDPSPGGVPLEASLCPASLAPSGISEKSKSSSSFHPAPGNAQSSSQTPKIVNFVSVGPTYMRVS
Particulars: Klementiv 2013; cited from earlier work.

Another experiment addresses T2, type I IL-4R (Homo sapiens, UniProt P24394).
T2 sequence (P24394 26-825): T1 sequence (P24394 26-825)
T2 sequence (P31785 23-369 partner): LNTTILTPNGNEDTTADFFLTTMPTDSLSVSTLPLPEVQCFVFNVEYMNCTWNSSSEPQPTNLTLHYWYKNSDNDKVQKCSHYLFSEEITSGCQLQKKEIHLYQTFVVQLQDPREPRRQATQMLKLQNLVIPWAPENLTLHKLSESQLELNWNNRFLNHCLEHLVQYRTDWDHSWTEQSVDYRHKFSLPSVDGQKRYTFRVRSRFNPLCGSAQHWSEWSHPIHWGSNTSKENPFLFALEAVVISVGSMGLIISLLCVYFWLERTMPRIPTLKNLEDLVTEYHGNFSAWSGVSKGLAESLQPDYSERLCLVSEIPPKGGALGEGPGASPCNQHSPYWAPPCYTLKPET
Particulars: Klementiv 2013; cited from earlier work.

The test system of a further experiment is ReninAAV UNx db/db mice. Nature of the experiment: ReninAAV UNx db/db mice model of diabetic nephropathy, urine biomarkers. In kind it is in vivo. Particulars: 10 mg/kg subcutaneously once daily, compared to vehicle, spot urine at termination day 77. The protocol:
28 female mice (BKS.Cg-Dock7m+/+Lepradb/db BLKS, 5 weeks of age) were transferred to the Gubra Research animal unit. Throughout the habituation and study period, the animals were housed in a light-, temperature-, and humidity-controlled room with free access to food and water. All animal experiments were conducted in accordance with Gubra's bioethical guidelines, which are fully compliant with internationally accepted principles for the care and use of laboratory animals. The animals were group-housed until uni-nephrectomies, then single-housed.
The animals were terminated on day 77; blood was taken for later analysis, body weight was recorded, and spot urine was collected.
Compound A was provided by Phlogo ApS, Copenhagen, Denmark (10 mg/ml miliQ water diluted to the dose formulations). Compound A was provided as a dimeric peptide comprising two copies of the sequence AQFHRHKQLIRFLKRA (SEQ ID NO: 1). […]
Urine samples were stored at minus 80° C. until analysis. […] Urine albumin was measured using a commercial ELISA kit (Bethyl Laboratories, Inc.), according to the manufacturer's instructions, and urine creatinine was measured using a commercial kit (Roche Diagnostics) on the Cobas c 501 autoanalyzer, according to the manufacturer's instructions. Urinary KIM-1 was measured using a commercial ELISA kit (R&D Systems) according to the manufacturer's instructions.

For “AQFHRHKQLIRFLKRA [SEQ ID NO:1, IL-4 derived peptide, variant of AA71-AA86 of IL-4 with two amino acid substitutions]”, the “Binding to the IL-4 receptors” value in the experiment on IL-4 receptors is “capable of binding to the IL-4 receptors”. Besides, the Macrophage activation result in the experiment on macrophages is “inhibiting macrophage activation”. In the experiment with type II IL-4R, the “Mode of action on type II IL-4R” value is given as “antagonist”. Also, in the experiment with type I IL-4R, the “Mode of action on type I IL-4R” value was “high affinity partial agonist”.

“Compound A: dimer of SEQ ID NO:1 (AQFHRHKQLIRFLKRA), two copies connected via their C-terminal through a lysine-beta-alanine linker (AQFHRHKQLIRFLKRAK[βAla]; also: dimer of two copies joined at C-termini via lysine-beta-alanine linker, Rink amide)”: in the experiment on ReninAAV UNx db/db mice, the “ACR (urinary albumin corrected for creatinine)” value is listed as “significantly decreased; also recorded: significantly reduced” and the “KIM-1/CR (urinary KIM-1 corrected for creatinine)” value is given as “significantly decreased; also recorded: significantly reduced”.
